From paper PMC7673538 (PLoS Biology, 2020)

Tested on: EV-A71
Assay: microbe, parasite or virus in culture
Assay type: cell-based, enterovirus A71
Conditions: Enterovirus A, EVA71, HeLa R19, read-out: EC50 EV-A71

| Compound | EC50 [µM] |
| --- | --- |
| COc1ccc(N(Cc2ccc(F)cc2)C(=O)c2ccc[nH]2)cc1 [Compound 5c, N-(4-fluorobenzyl)-N-(4-methoxyphenyl)-1H-pyrrole-2-carboxamide] | > 30 |

Tested on: CV-B3
Assay: microbe, parasite or virus in culture
Assay type: cell-based, coxsackievirus B3
Conditions: Enterovirus B, CVB3, HeLa

| Compound | EC50 [µM] |
| --- | --- |
| COc1ccc(N(Cc2ccc(F)cc2)C(=O)c2ccc[nH]2)cc1 [Compound 5c, N-(4-fluorobenzyl)-N-(4-methoxyphenyl)-1H-pyrrole-2-carboxamide] | 4.82 ± 0.14 |

Same assay, conditions: Enterovirus B, CVB3, HeLa R19, read-out: CV-B3 EC50 Average

| Compound | EC50 [µM] |
| --- | --- |
| COc1ccc(N(Cc2ccc(F)cc2)C(=O)c2ccc[nH]2)cc1 [Compound 5c, N-(4-fluorobenzyl)-N-(4-methoxyphenyl)-1H-pyrrole-2-carboxamide] | 3.01 |

Same assay, conditions: Enterovirus B, CVB3, HeLa R19, read-out: CV-B3 Exp 1 EC50

| Compound | EC50 [µM] |
| --- | --- |
| COc1ccc(N(Cc2ccc(F)cc2)C(=O)c2ccc[nH]2)cc1 [Compound 5c, N-(4-fluorobenzyl)-N-(4-methoxyphenyl)-1H-pyrrole-2-carboxamide] | 3.21 |

Same assay, conditions: Enterovirus B, CVB3, HeLa R19, read-out: CV-B3 Exp2 EC50

| Compound | EC50 [µM] |
| --- | --- |
| COc1ccc(N(Cc2ccc(F)cc2)C(=O)c2ccc[nH]2)cc1 [Compound 5c, N-(4-fluorobenzyl)-N-(4-methoxyphenyl)-1H-pyrrole-2-carboxamide] | 2.81 |

Same assay, conditions: Enterovirus B, CVB3, HeLa R19, read-out: EC50 HelaR19 Average

| Compound | EC50 [µM] |
| --- | --- |
| COc1ccc(N(Cc2ccc(F)cc2)C(=O)c2ccc[nH]2)cc1 [Compound 5c, N-(4-fluorobenzyl)-N-(4-methoxyphenyl)-1H-pyrrole-2-carboxamide] | 4.81 |

Same assay, conditions: Enterovirus B, CVB3, HeLa R19, read-out: Exp 1 EC50 HelaR19

| Compound | EC50 [µM] |
| --- | --- |
| COc1ccc(N(Cc2ccc(F)cc2)C(=O)c2ccc[nH]2)cc1 [Compound 5c, N-(4-fluorobenzyl)-N-(4-methoxyphenyl)-1H-pyrrole-2-carboxamide] | 4.95 |

Same assay, conditions: Enterovirus B, CVB3, HeLa R19, read-out: Exp 2 EC50 HelaR19

| Compound | EC50 [µM] |
| --- | --- |
| COc1ccc(N(Cc2ccc(F)cc2)C(=O)c2ccc[nH]2)cc1 [Compound 5c, N-(4-fluorobenzyl)-N-(4-methoxyphenyl)-1H-pyrrole-2-carboxamide] | 4.68 |

Tested on: PV-1
Assay: microbe, parasite or virus in culture
Assay type: cell-based, poliovirus 1
Conditions: Enterovirus C, HeLa R19, read-out: EC50 PV-1

| Compound | EC50 [µM] |
| --- | --- |
| COc1ccc(N(Cc2ccc(F)cc2)C(=O)c2ccc[nH]2)cc1 [Compound 5c, N-(4-fluorobenzyl)-N-(4-methoxyphenyl)-1H-pyrrole-2-carboxamide] | > 30 |

Tested on: CV-A24
Assay: microbe, parasite or virus in culture
Assay type: cell-based, coxsackievirus A24
Conditions: Enterovirus C, CVA24, HeLa R19, read-out: EC50 CV-A24

| Compound | EC50 [µM] |
| --- | --- |
| COc1ccc(N(Cc2ccc(F)cc2)C(=O)c2ccc[nH]2)cc1 [Compound 5c, N-(4-fluorobenzyl)-N-(4-methoxyphenyl)-1H-pyrrole-2-carboxamide] | > 30 |

Tested on: EV-D68
Assay: microbe, parasite or virus in culture
Assay type: cell-based, enterovirus D68
Conditions: Enterovirus D, EVD68, HeLa R19, read-out: EC50 EV-D68

| Compound | EC50 [µM] |
| --- | --- |
| COc1ccc(N(Cc2ccc(F)cc2)C(=O)c2ccc[nH]2)cc1 [Compound 5c, N-(4-fluorobenzyl)-N-(4-methoxyphenyl)-1H-pyrrole-2-carboxamide] | 3.47 ± 0.08 |

Same assay, conditions: Enterovirus D, EVD68, HeLa R19, read-out: EC50 Exp1

| Compound | EC50 [µM] |
| --- | --- |
| COc1ccc(N(Cc2ccc(F)cc2)C(=O)c2ccc[nH]2)cc1 [Compound 5c, N-(4-fluorobenzyl)-N-(4-methoxyphenyl)-1H-pyrrole-2-carboxamide] | 3.39 |

Same assay, conditions: Enterovirus D, EVD68, HeLa R19, read-out: EC50 Exp2

| Compound | EC50 [µM] |
| --- | --- |
| COc1ccc(N(Cc2ccc(F)cc2)C(=O)c2ccc[nH]2)cc1 [Compound 5c, N-(4-fluorobenzyl)-N-(4-methoxyphenyl)-1H-pyrrole-2-carboxamide] | 3.54 |

Tested on: HRV-A2
Assay: microbe, parasite or virus in culture
Assay type: cell-based, human rhinovirus
Conditions: Human rhinovirus sp., HRVA2, HeLa R19, read-out: EC50 HRV-A2

| Compound | EC50 [µM] |
| --- | --- |
| COc1ccc(N(Cc2ccc(F)cc2)C(=O)c2ccc[nH]2)cc1 [Compound 5c, N-(4-fluorobenzyl)-N-(4-methoxyphenyl)-1H-pyrrole-2-carboxamide] | > 30 |

Tested on: HRV-B14
Assay: microbe, parasite or virus in culture
Assay type: cell-based, human rhinovirus
Conditions: Human rhinovirus sp., HRVB14, HeLa R19, read-out: EC50 HRV-B14

| Compound | EC50 [µM] |
| --- | --- |
| COc1ccc(N(Cc2ccc(F)cc2)C(=O)c2ccc[nH]2)cc1 [Compound 5c, N-(4-fluorobenzyl)-N-(4-methoxyphenyl)-1H-pyrrole-2-carboxamide] | > 30 |

Tested on: CV-B3
Assay: microbe, parasite or virus in culture
Assay type: cell-based, coxsackievirus B3
Conditions: Enterovirus B, CVB3, HAP1, read-out: EC50 Hap1 Average

| Compound | EC50 [µM] |
| --- | --- |
| COc1ccc(N(Cc2ccc(F)cc2)C(=O)c2ccc[nH]2)cc1 [Compound 5c, N-(4-fluorobenzyl)-N-(4-methoxyphenyl)-1H-pyrrole-2-carboxamide] | 2.52 |

Same assay, conditions: Enterovirus B, CVB3, HAP1, read-out: Exp 1 EC50 Hap1

| Compound | EC50 [µM] |
| --- | --- |
| COc1ccc(N(Cc2ccc(F)cc2)C(=O)c2ccc[nH]2)cc1 [Compound 5c, N-(4-fluorobenzyl)-N-(4-methoxyphenyl)-1H-pyrrole-2-carboxamide] | 2.05 |

Same assay, conditions: Enterovirus B, CVB3, HAP1, read-out: Exp 2 EC50 Hap1

| Compound | EC50 [µM] |
| --- | --- |
| COc1ccc(N(Cc2ccc(F)cc2)C(=O)c2ccc[nH]2)cc1 [Compound 5c, N-(4-fluorobenzyl)-N-(4-methoxyphenyl)-1H-pyrrole-2-carboxamide] | 2.99 |

Tested on: CV-B3
Assay: microbe, parasite or virus in culture
Assay type: cell-based, coxsackievirus B3
Conditions: Enterovirus B, CVB3, BGM, read-out: EC50 BGM Average

| Compound | EC50 [µM] |
| --- | --- |
| COc1ccc(N(Cc2ccc(F)cc2)C(=O)c2ccc[nH]2)cc1 [Compound 5c, N-(4-fluorobenzyl)-N-(4-methoxyphenyl)-1H-pyrrole-2-carboxamide] | 4.18 |

Same assay, conditions: Enterovirus B, CVB3, BGM, read-out: Exp 1 EC50 BGM

| Compound | EC50 [µM] |
| --- | --- |
| COc1ccc(N(Cc2ccc(F)cc2)C(=O)c2ccc[nH]2)cc1 [Compound 5c, N-(4-fluorobenzyl)-N-(4-methoxyphenyl)-1H-pyrrole-2-carboxamide] | 3.86 |

Same assay, conditions: Enterovirus B, CVB3, BGM, read-out: Exp 2 EC50 BGM

| Compound | EC50 [µM] |
| --- | --- |
| COc1ccc(N(Cc2ccc(F)cc2)C(=O)c2ccc[nH]2)cc1 [Compound 5c, N-(4-fluorobenzyl)-N-(4-methoxyphenyl)-1H-pyrrole-2-carboxamide] | 4.5 |

Tested on: HeLa R19 cells
Assay: not given
Conditions: not given

| Compound | cytotoxicity (in words) |
| --- | --- |
| COc1ccc(N(Cc2ccc(F)cc2)C(=O)c2ccc[nH]2)cc1 [Compound 5c, N-(4-fluorobenzyl)-N-(4-methoxyphenyl)-1H-pyrrole-2-carboxamide] | no cytotoxicity |

Tested on: not listed separately
Assay: in vitro
Conditions: human, CC50 Average

| Compound | CC50 [µM] |
| --- | --- |
| COc1ccc(N(Cc2ccc(F)cc2)C(=O)c2ccc[nH]2)cc1 [Compound 5c, N-(4-fluorobenzyl)-N-(4-methoxyphenyl)-1H-pyrrole-2-carboxamide] | > 30 |

Same assay, conditions: human, CC50 HelaR19 Average

| Compound | CC50 [µM] |
| --- | --- |
| COc1ccc(N(Cc2ccc(F)cc2)C(=O)c2ccc[nH]2)cc1 [Compound 5c, N-(4-fluorobenzyl)-N-(4-methoxyphenyl)-1H-pyrrole-2-carboxamide] | > 100 |

Same assay, conditions: human, Exp 1 CC50

| Compound | CC50 [µM] |
| --- | --- |
| COc1ccc(N(Cc2ccc(F)cc2)C(=O)c2ccc[nH]2)cc1 [Compound 5c, N-(4-fluorobenzyl)-N-(4-methoxyphenyl)-1H-pyrrole-2-carboxamide] | > 30 |

Same assay, conditions: human, Exp 1 CC50 HelaR19

| Compound | CC50 [µM] |
| --- | --- |
| COc1ccc(N(Cc2ccc(F)cc2)C(=O)c2ccc[nH]2)cc1 [Compound 5c, N-(4-fluorobenzyl)-N-(4-methoxyphenyl)-1H-pyrrole-2-carboxamide] | > 100 |

Same assay, conditions: human, Exp2 CC50

| Compound | CC50 [µM] |
| --- | --- |
| COc1ccc(N(Cc2ccc(F)cc2)C(=O)c2ccc[nH]2)cc1 [Compound 5c, N-(4-fluorobenzyl)-N-(4-methoxyphenyl)-1H-pyrrole-2-carboxamide] | > 30 |

Same assay, conditions: human, Exp 2 CC50 HelaR19

| Compound | CC50 [µM] |
| --- | --- |
| COc1ccc(N(Cc2ccc(F)cc2)C(=O)c2ccc[nH]2)cc1 [Compound 5c, N-(4-fluorobenzyl)-N-(4-methoxyphenyl)-1H-pyrrole-2-carboxamide] | > 100 |

Tested on: not listed separately
Assay: in vitro
Conditions: human, CC50

| Compound | CC50 [µM] |
| --- | --- |
| COc1ccc(N(Cc2ccc(F)cc2)C(=O)c2ccc[nH]2)cc1 [Compound 5c, N-(4-fluorobenzyl)-N-(4-methoxyphenyl)-1H-pyrrole-2-carboxamide] | > 100 |

Same assay, conditions: human, CC50 Hap1 Average

| Compound | CC50 [µM] |
| --- | --- |
| COc1ccc(N(Cc2ccc(F)cc2)C(=O)c2ccc[nH]2)cc1 [Compound 5c, N-(4-fluorobenzyl)-N-(4-methoxyphenyl)-1H-pyrrole-2-carboxamide] | > 100 |

Same assay, conditions: human, Exp 1 CC50 Hap1

| Compound | CC50 [µM] |
| --- | --- |
| COc1ccc(N(Cc2ccc(F)cc2)C(=O)c2ccc[nH]2)cc1 [Compound 5c, N-(4-fluorobenzyl)-N-(4-methoxyphenyl)-1H-pyrrole-2-carboxamide] | > 100 |

Same assay, conditions: human, Exp 2 CC50 Hap1

| Compound | CC50 [µM] |
| --- | --- |
| COc1ccc(N(Cc2ccc(F)cc2)C(=O)c2ccc[nH]2)cc1 [Compound 5c, N-(4-fluorobenzyl)-N-(4-methoxyphenyl)-1H-pyrrole-2-carboxamide] | > 100 |

Tested on: not listed separately
Assay: in vitro
Conditions: monkey, CC50

| Compound | CC50 [µM] |
| --- | --- |
| COc1ccc(N(Cc2ccc(F)cc2)C(=O)c2ccc[nH]2)cc1 [Compound 5c, N-(4-fluorobenzyl)-N-(4-methoxyphenyl)-1H-pyrrole-2-carboxamide] | > 100 |

Same assay, conditions: monkey, CC50 BGM Average

| Compound | CC50 [µM] |
| --- | --- |
| COc1ccc(N(Cc2ccc(F)cc2)C(=O)c2ccc[nH]2)cc1 [Compound 5c, N-(4-fluorobenzyl)-N-(4-methoxyphenyl)-1H-pyrrole-2-carboxamide] | 56 |

Same assay, conditions: monkey, Exp 1 CC50 BGM

| Compound | CC50 [µM] |
| --- | --- |
| COc1ccc(N(Cc2ccc(F)cc2)C(=O)c2ccc[nH]2)cc1 [Compound 5c, N-(4-fluorobenzyl)-N-(4-methoxyphenyl)-1H-pyrrole-2-carboxamide] | 58 |

Same assay, conditions: monkey, Exp 2 CC50 BGM

| Compound | CC50 [µM] |
| --- | --- |
| COc1ccc(N(Cc2ccc(F)cc2)C(=O)c2ccc[nH]2)cc1 [Compound 5c, N-(4-fluorobenzyl)-N-(4-methoxyphenyl)-1H-pyrrole-2-carboxamide] | 54 |
